Experimental data published in patent publication US9278068B2, “Vesicle compositions” (Sensulin LLC, priority 2011, dated 2016).

Columns and labels:
NF-κB = NF-κB assay for inflammation (nuclear translocation of NF-κB, immunocytochemistry, PCC); conditions: HeLa cells, 2 h, PCC between nuclear and cytoplasmic fraction of NF-κB
Experimental: 15,000 HeLa cells were plated in 96 well plates the night before the experiments. On the day of the experiments, the cells were treated with the boronic acids (Table 1, below) at three different concentrations (40 nM, 80 nM, and 160 nM) for 2 h. At the end of the incubation, cells were washed with phosphate buffered saline (PBS) and were fixed in 4% paraformaldehyde for 15 min and permeablized with 0.01% Triton X-100 in PBS for 10 min. The cells were washed with PBS three times. Nonspecific sites were blocked with 5% bovine serum albumin (BSA) in PBS and incubated with the Anti-NF-κB for 1 h, followed by incubation with fluorescein isothiocyanate (FITC)-labeled secondary antibody. After washing the cells at the end of the incubation, the cells were treated with 4′,6-diamidino-2-phenylindole (DAPI) for 1 min and kept at 4° C. until further analysis. Images of the cells were acquired with a Beckman-Coulter 100 automated high-throughput microscope system and analyzed using Cytseer software (Vala Sciences, CA). The co-localization of NF-κB was quantified by measuring the PCC between the nuclear and cytoplasmic fraction of the NF-κB molecule. The PCC is a measure of the overlap between the pixel intensities of the nuclear and NF-κB images of the same cell. The PCC values can range from −1 to 1. […] A negative correlation (negative PCC value) indicates an absence of nuclear translocation.

HeLa cells = assay: MTT assay for cytotoxicity; conditions: 2 h
Experimental: The cytotoxicity of the boronic acid derivatives from Table 1 was studied by MTT assay. 150,000 HeLa cells were plated in 96 well plates on the night before the experiments. On the day of experiments, the cells were treated with the boronic acid derivatives at three different concentrations (40 nM, 80 nM, and 160 nM) for 2 h. At the end of the incubation, MTT assays (In-Vitro toxicology MTT based assay kit, Sigma Aldrich, MO) were performed according to the manufacturer's protocol.

| SMILES | Inflammation (PCC) 40 nM (NF-κB) | Inflammation (PCC) 80 nM (NF-κB) | Inflammation (PCC) 160 nM (NF-κB) | MTT (% Cell Survival) 40 nM (HeLa cells) | MTT (% Cell Survival) 80 nM (HeLa cells) | MTT (% Cell Survival) 160 nM (HeLa cells) |
| --- | --- | --- | --- | --- | --- | --- |
| O=Cc1ccc(B(O)O)o1 [5-formyl-2-furanboronic acid] | 0.00989 | −0.0122 | 0.1132 | 77.18% | 94.08% | 50.14% |
| O=c1[nH]cc(B(O)O)c(=O)[nH]1 [uracil-5-boronic acid] | −0.0586 | 0.00516 | −0.01522 | 68.5083% | 50.3499% | 28.07% |
| OB(O)c1cccc2c1Sc1ccccc1S2 [thianthrene-1-boronic acid] | −0.0683 | 0.0268 | 0.1094 | 64.19% | 61.32% | 81.10% |
| OB(O)c1cnc(OCc2ccccc2)nc1OCc1ccccc1 [2,4-bis(benzyloxy)pyrimidine-5-boronic acid] | −0.0647 | −0.0533 | 0.04709 | 100.05% | 89.04% | 74.74% |
| COc1ccc(F)cc1B(O)O [5-fluoro-2-methoxyphenylboronic acid] | −0.0169 | 0.02474 | 0.2936 | 84.22% | 84.22% | 54.92% |
| CN(C)c1ccc(B(O)O)cc1 [4-(dimethylamino)phenylboronic acid] | −0.1318 | −0.0051 | 0.213 | 78.59% | 71.75% | 51.04% |
| O=C(O)c1cc(B(O)O)cc([N+](=O)[O-])c1 [3-carboxy-5-nitrophenylboronic acid] | −0.0136 | 0.03893 | 0.1227 | 54.3094% | 46.2431% | 33.3% |
| OB(O)c1cccc2c1oc1ccccc12 [4-dibenzofuranboronic acid] | −0.0736 | −0.0438 | −0.128 | 71.48% | 75.50% | 70.50% |
| OB(O)c1cccc(O)c1 [3-hydroxyphenylboronic acid] | −0.1136 | 0.04005 | 0 | 104.60% | 62.75% | 89.29% |
| OB(O)c1ccccc1O [2-hydroxyphenylboronic acid] | −0.0198 | −0.0878 | 0.08884 | 70.3314% | 55.8039% | 53.64% |
| OB(O)C1CC1 [cyclopropylboronic acid] | −0.0484 | 0.03475 | 0.1705 | 81.55% | 107.79% | 80.01% |
| OB(O)c1ccsc1 [3-thienylboronic acid] | −0.0062 | 0.1457 | 0.05963 | 90.42% | 80.00% | 49.85% |
| O=Cc1ccoc1B(O)O [3-formylfuran-2-boronic acid] | −0.0012 | 0.0274 | 0.08621 | 107.84% | 73.72% | 65.18% |
| O=[N+]([O-])/C=C/c1cccc(B(O)O)c1 [3-[(E)-2-nitrovinyl]phenylboronic acid] | −0.0456 | −0.0517 | 0.2058 | 116.00% | 96.38% | 73.93% |
| Cc1noc(C)c1B(O)O [3,5-dimethylisoxazole-4-boronic acid] | −0.061 | 0.0057 | −0.01277 | 88.37% | 90.63% | 42.89% |
| NC(=O)c1cccc(B(O)O)c1 [3-aminocarbonylphenylboronic acid] | −0.0696 | 0.07022 | 0.1748 | 101.02% | 77.93% | 29.19% |
| OB(O)c1cc2cc(Br)ccc2s1 [5-bromobenzo-B-thophene-2boronic acid] | −0.0244 | −0.01 | 0.1265 | 71.83% | 81.40% | 90.42% |
| CC(C)[Si](C(C)C)(C(C)C)n1ccc(B(O)O)c1 [1-(triisopropylsilyl)pyrrol-E-3-boronic acid] | −0.0781 | 0.00445 | 0.169. | 72.92% | 65.92% | 56.94% |
| CC(C)OB(CBr)OC(C)C [diisopropyl(bromomethyl)boronate] | −0.0205 | 0.02739 | 0.1157 | 81.27% | 96.62% | 79.32% |
| C=C(B(O)O)c1ccccc1 [1-phenylvinylbornic acid] | −0.1145 | 0.03776 | 0 | 66.08% | 67.23% | 58.91% |
| OB(O)/C=C/c1ccccc1 [trans-2-Phenylvinylboronic acid] | −0.1303 | 0.1523 | 0 | 72.90% | 99.51% | 65.87% |
| N#Cc1ccc(B(O)O)s1 [5-cyanothiophene-2-boronic acid] | −0.01 | 0.1051 | 0.2434 | 80.56% | 40.00% | 44.78% |
| CN(C)S(=O)(=O)c1ccccc1B(O)O [2-(N,N-dimethylsulphamoyl)benzene-boronic acid] | −0.1529 | −0.0404 | 0.03422 | 74.92% | 76.38% | 47.32% |
